Experiments:
AD38 cells = assay: Viability of AD38 cells (Promega CellTiter-Glo) at the end of compound treatment; format: cell-based; settings: 10 μM compound, 6 days, luminescence normalized against DMSO control wells (controls being 100%)
Summary of the method: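 AD38 cells seeded at 50,000/well received compound from a 10× solution in 10% DMSO and were incubated 6 days at 37° C. Viability was then read by CellTiter-Glo luminescence in tetracycline-free medium with 2% FBS and 1% DMSO, normalized to DMSO control wells (100%) and reported as percent viability.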

[1] = tested on: HBV viral production in AD38 cells; assay: Viral load production in AD38 cells by quantitative PCR of the HBV core sequence in supernatant; format: cell-based; settings: 10 μM compound, 6 days at 37° C., viral load in supernatant compared against DMSO control wells; for activity at 10 µM: Hepatitis B virus, 144 h, read-out: AD38 Viral Load (CpAM/DMSO %) at 10 μM
Summary of the method: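 AD38 cells seeded at 50,000/well, treated 6 days at 37° C with compound added as 10× solution in 10% DMSO. HBV core sequence in clarified supernatant quantified by TaqMan qPCR against known standards; viral load compared with DMSO control wells.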

Row | Structure (SMILES) | AD38 Viability Normalized Result (CPAM/DMSO %) at 10 μM (AD38 cells) | activity at 10 µM [1] | AD38 Viral Load (CpAM/DMSO %) at 10 μM [1]
1 | O=C(NCCc1cccnc1)c1ccc2c(c1)NC(=O)c1ccccc1[S+]2[O-] (stereo not drawn) [Compound 1389] | 89% | 15% | 
2 | NS(=O)(=O)c1ccc(CCNC(=O)c2ccc3c(c2)NC(=O)c2ccccc2S3)cc1 [Compound 1101] | 107% | 15% | 
3 | O=C(NCCC1CCOCC1)c1ccc2c(c1)NC(=O)c1ccccc1S2 [Compound 1191] | 121% | 14% | 
4 | Cc1ccc2c(c1)Sc1ccc(C(=O)NCCC3CCCCC3)cc1NC2=O [Compound 1273] | 96% | 6% | 
5 | O=C(NCCC1CCCCC1)c1ccc2c(c1)Sc1ccccc1C(=O)N2 [Compound 1199] | 109% | 19% | 
6 | CCN1c2ccc(C(=O)NCCc3cccnc3)cc2NC(=O)c2ccccc21 [Compound 1523] | 70% | 1% | 
7 | O=C(NCCc1ccc(-n2nccn2)cc1)c1ccc2c(c1)NC(=O)c1ccccc1S2(=O)=O [Compound 1626] | 118% | 0% | 
8 | O=C(NCCc1cccs1)c1ccc2c(c1)NC(=O)c1ccccc1S2 [Compound 1190] | 70% | 1% | 
9 | CN(C)S(=O)(=O)c1ccc(CCNC(=O)c2ccc3c(c2)NC(=O)c2ccccc2N3Cc2ccccc2)cc1 [Compound 1512] | 99% | 27% | 
10 | O=C(Nc1ccccc1)c1ccc2c(c1)NC(=O)c1ccccc1S2 [Compound 1223] | 28% | 2% | 
11 | CN(C)C(=O)c1ccc2c(c1)Sc1ccc(C(=O)NCCc3ccccc3)cc1NC2=O [Compound 1281, N^3,N^3-dimethyl-11-oxo-N^8-phenethyl-10, 11-dihydrodibenzo [b,f] [1,4] thiazepine-3,8-dicarboxamide] | 86% | 29% | 
12 | O=C1Nc2c(cc(F)c(C(=O)NCCc3cncs3)c2F)Sc2ccccc21 [Compound 1563] | 93% | 41% | 
13 | O=C1Nc2c(cc(F)c(C(=O)NCc3cncnc3)c2F)Sc2ccccc21 [Compound 1518] | 85% | 67% | 
14 | O=C(Nc1nc2ccc(F)cc2s1)c1ccc2c(c1)NC(=O)c1ccccc1S2(=O)=O [Compound 1637] | 123% | 32% | 
15 | CCCCCCNC(=O)c1ccc2c(c1)NC(=O)c1ccccc1S2 [Compound 1151] | 50% | 1% | 
16 | O=C(Nc1cccnc1)c1ccc2c(c1)NC(=O)c1ccccc1S2 [Compound 1231] | 93% | 12% | 
17 | CCc1ncsc1CNC(=O)c1ccc2c(c1)NC(=O)c1ccccc1S2 [Compound 1631] | 112% | 9% | 
18 | O=C(NCCC1CCCCC1)c1ccc2c(c1)NC(=O)c1cc(F)ccc1S2 [Compound 1285] | 108% | 3% | 
19 | CC(=O)N1CCC(CNC(=O)c2ccc3c(c2)NC(=O)c2ccccc2S3)C1 (stereo not drawn) [Compound 1615, N-((1-acetylpyrrolidin-3-yl)methyl)-11-oxo-10, 11-dihydrodibenzo [b,f] [1,4] thiazepine-8-carboxamide] | 123% | 32% | 
20 | COc1ccc(CCNC(=O)c2ccc3c(c2)NC(=O)c2ccccc2S3)cc1 [Compound 1114] | 104% | 1% | 
21 | CC(C)NS(=O)(=O)c1ccc2c(c1)NC(=O)c1ccccc1S2 [Compound 1450] | 94% | 73% | 
22 | CC(C)(C)c1ccc(CNC(=O)c2ccc3c(c2)NC(=O)c2ccccc2S3)cc1 [Compound 1165] | 82% | 5% | 
23 | O=C(Nc1ccncc1)c1ccc2c(c1)NC(=O)c1ccc(F)cc1S2 [Compound 1366] | 93% | 12% | 
24 | O=C(Nc1ccc(F)cc1Cl)c1ccc2c(c1)NC(=O)c1cc(F)ccc1S2 [Compound 1323] | 60% | 96% | 

Row | Structure (SMILES) | AD38 Viability Normalized Result (CPAM/DMSO %) at 10 μM (AD38 cells) | activity at 10 µM [1] | AD38 Viral Load (CpAM/DMSO %) at 10 μM [1]
25 | O=C(O)c1ccc(-c2cccc(NC(=O)c3ccc4c(c3)NC(=O)c3cc(F)ccc3S4)c2)cc1 [Compound 1419, 3′-(2-fluoro-11-oxo-10, 11-dihydrodibenzo [b,f] [1,4]thiazepine-8-carboxamido)-[1, 1′-biphenyl]-4-carboxylic acid] | 89% | 113% | 
26 | O=C(NCc1cnco1)c1cc2c(cc1F)Sc1ccccc1C(=O)N2 [Compound 1430] | 92% | 56% | 
27 | CC(C)c1ncsc1CNC(=O)c1ccc2c(c1)NC(=O)c1ccccc1S2 [Compound 1614] | 45% | 2% | 
28 | O=C(Nc1cccc(-c2ccccc2)c1)c1ccc2c(c1)NC(=O)c1ccc(F)cc1S2 [Compound 1358] | 72% | 15% | 
29 | CC(C)(C)OC(=O)C(Cc1cncnc1)NC(=O)c1ccc2c(c1)NC(=O)c1cc(F)ccc1S2 (stereo not drawn) [Compound 1346, Tert-Butyl 2-(2-fluoro-11-oxo-10, 11-dihydrodibenzo [b,f] [1,4]thiazepine-8-carboxamido)-3-(pyrimidin-5-yl) propanoate] | 97% |  | 105%
30 | O=C(NCc1cnco1)c1ccc2c(c1)NC(=O)c1ccccc1[S+]2[O-] (stereo not drawn) [Compound 1381] | 93% | 40% | 
31 | O=C(NCCc1ccc2ccccc2c1)c1ccc2c(c1)NC(=O)c1ccccc1S2 [Compound 1110] | 119% | 2% | 
32 | O=C(NCc1cccnc1)c1ccc2c(c1)NC(=O)c1cccc(F)c1S2 [Compound 1392] | 85% | 2% | 
33 | CN(C)S(=O)(=O)c1ccc(CCCNC(=O)c2ccc3c(c2)NC(=O)c2ccc(F)cc2S3)cc1 [Compound 1398] | 60% | 5% | 
34 | O=C(NCCc1cnco1)c1ccc2c(c1)NC(=O)c1ccccc1S2 [Compound 1246] | 96% | 6% | 
35 | CC(=O)N(CCc1ccccc1)Cc1ccc2c(c1)NC(=O)c1ccccc1S2 [Compound 1367, N-((11-oxo-10, 11-dihydrodibenzo [b,f] [1,4]thiazepin-8-yl)methyl)-N-phenethyl acetamide] | 88% | 33% | 
36 | COC(=O)C(Cc1cncnc1)NC(=O)c1ccc2c(c1)NC(=O)c1cc(F)ccc1S2 (stereo not drawn) [Compound 1342, Methyl 2-(2-fluoro-11-oxo-10, 11-dihydrodibenzo [b,f] [1,4]thiazepine-8-carboxamido)-3-(pyrimidin-5-yl) propanoate] | 95% |  | 113%
37 | O=C(NCC1CCCO1)c1ccc2c(c1)NC(=O)c1ccccc1S2 (stereo not drawn) [Compound 1592] | 102% | 50% | 
38 | CC(CNC(=O)c1ccc2c(c1)NC(=O)c1ccccc1S2)c1ccccc1 (stereo not drawn) [Compound 1212] | 72% | 1% | 
39 | O=C1Nc2c(cc(F)c(C(=O)NCCc3ccccn3)c2F)Sc2ccccc21 [Compound 1519] | 81% | 73% | 
40 | O=C(NCc1ccccn1)c1ccc2c(c1)NC(=O)c1ccccc1S2 [Compound 1210] | 116% | 25% | 
41 | O=C(NCCc1ccc(N2CCCCC2)cc1)c1ccc2c(c1)NC(=O)c1ccccc1S2 [Compound 1121] | 109% | 6% | 
42 | CN1c2ccc(C(=O)NCc3cncs3)cc2NC(=O)c2ccccc21 [Compound 1581] | 97% | 3% | 
43 | O=C(NCCc1nnc(-c2ccco2)[nH]1)c1ccc2c(c1)NC(=O)c1ccccc1S2 [Compound 1570] | 115% | 2% | 
44 | CC(C)(CNC(=O)c1ccc2c(c1)NC(=O)c1ccccc1S2)c1ccccc1 [Compound 1213] | 55% | 2% | 
45 | O=C(Nc1cccc(-c2ccccc2)c1)c1ccc2c(c1)NC(=O)c1cccc(F)c1S2 [Compound 1410] | 50% | 35% | 
46 | O=C(NCCc1cncs1)c1ccc2c(c1)NC(=O)c1cccc(F)c1S2 [Compound 1528] | 85% | 4% | 
47 | O=C(NCC(c1ccccc1)N1CCCC1)c1ccc2c(c1)NC(=O)c1ccccc1S2 (stereo not drawn) [Compound 1251] | 99% | 8% | 
48 | CC(Cc1cccc(O)c1)NC(=O)c1ccc2c(c1)NC(=O)c1ccccc1S2 (stereo not drawn) [Compound 1177] | 118% | 47% | 
